{
  "source": "patent US5480649A",
  "about": "“Procaterol-containing preparation for application to the skin” (Teikoku Seiaku Kabushiki Kaisha, priority 1990, dated 1996)",
  "origin": "cited, not measured here",
  "system": "β-receptor of sympathetic nerves",
  "conditions": "background statement",
  "data": [
    {"molecule": "CCC(NC(C)C)C(O)c1ccc(O)c2[nH]c(=O)ccc12", "note": "(centres unmarked) [procaterol]", "values": [
      {"measurement": "bronchodilating activity", "value": "strong bronchodilating activity in very small amounts"},
      {"measurement": "duration of the activity", "value": "≥ 8", "unit": "h"}
    ]}
  ]
}
